Key:
CYP2J2 = system: CYP2J2; set-up: method as in PMID 32157630; conditions: cited from earlier work
[1] = set-up: method as in PMID 33808739, PMID 30223963; conditions: cited from earlier work
[2] = Multivariable linear regression: genotype of CYP3A and P-gp vs AUC0–6h or C2h of apixaban and rivaroxaban; assay type: in vivo, human; conditions: for observed variability of AUC0–6h explained by the model: Table 4; for C2h, β (CI95%): Age 65–74 years / C2h, β (CI95%): Age 75–84 years / C2h, β (CI95%): Age >85 years: reference category <65 years; for C2h, β (CI95%): Gender, Female: reference category Male; for C2h, β (CI95%): Genotype ABCB1 1236C>T, Heterozygous for mutation / C2h, β (CI95%): Genotype ABCB1 1236C>T, Homozygous for mutation / C2h, β (CI95%): Genotype ABCB1 2677G>T, Heterozygous for mutation / C2h, β (CI95%): Genotype ABCB1 2677G>T, Homozygous for mutation / C2h, β (CI95%): Genotype ABCB1 3435C>T, Heterozygous for mutation / C2h, β (CI95%): Genotype ABCB1 3435C>T, Homozygous for mutation: reference category No mutation
Description: Genotyping of selected CYP3A4/5 and ABCB1 polymorphisms was carried out on QuantStudio^TM 12K Flex Real-Time (RT) PCR System with TaqMan® OpenArray^TM genotyping assays and TaqMan® MGB Probe Validated Single Nucleotide Polymorphism (SNP) Genotyping Assays (Applied Biosystems, Thermo Fisher Scientific, Waltham, MA, USA), respectively. These methods were previously described in detail in the literature. […] All SNPs of CYP3A4/5 integrated in the TaqMan® OpenArray^TM PGx Express Panel (Thermo Fisher Scientific, Waltham, MA, USA) were considered and are listed in Supplementary Table S1. Finally, raw genotyping data were processed with the TaqMan® Genotyper software (Thermo Fisher Scientific, Waltham, MA, USA) according to the manufacturer’s protocol.
AlleleTyper™ Software and translational tables (Thermo Fisher Scientific and PharmGKB, Stanford, CA, USA) were used to translate genetic pattern information from genotyping (SNPs) to pharmacogenomic gene-level star (*) nomenclature. Allele and genotype frequencies were determined, and Hardy–Weinberg equilibrium (HWE) was tested. […] The CYP3A activity predicted from the genotype combines the effects of CYP3A4 and CYP3A5 SNPs on enzyme activities, as listed in the PharmVar and PharmGKB databases. Patients were classified into poor metabolizer (PM), intermediate metabolizer (IM), normal metabolizer (NM), and ultra-rapid metabolizer (UM) according to the classification described by Andreu et al..
Missing data were excluded from the analysis.

[3] = Apixaban and rivaroxaban capillary blood concentrations (DBS, LC-MS/MS) in hospitalized patients; assay type: in vivo, human; conditions: concentrations normalized by the dosing regimen
Description: Comedications were systematically screened to record patients taking CYP3A4/5 and/or P-gp inhibitors and/or inducers using the Lexicomp drug interaction analysis tool and the Geneva Table of CYP substrates, inhibitors, and inducers. Adequacy of dosage was assessed according to the SmPC criteria (indication, age, CrCl, and weight).
The DBS concentrations were determined using a validated LC-MS/MS method.
After agitation during 10 min, 10 μL of the supernatant was injected into the LC-MS/MS system. Separation was performed with a Kinetex® C18 column (50 × 2.1 mm, 2.6 µm) from Phenomenex (Brechbühler, Schlieren, Switzerland) under gradient conditions. The mobile phase was composed of formic acid 0.1% in water and in acetonitrile. The total run time was 7 min. Detection of analytes was obtained in positive mode using multiple reaction monitoring (MRM). Instrument parameters were as follows: curtain gas = 40 psi, collision gas = high, IonSpray voltage = […], temperature = 550 °C, ion source gas 1 = 60 psi, ion source gas 2 = 60 psi.

[4] = Multivariable linear regression: phenotypic activity of CYP3A and P-gp vs AUC0–6h or C2h of apixaban and rivaroxaban; conditions: for observed variability of AUC0–6h predicted by the model: Table 3; for C2h, β (CI95%): Age 65–74 years / C2h, β (CI95%): Age 75–84 years / C2h, β (CI95%): Age >85 years: reference category <65 years; for C2h, β (CI95%): Gender, Female: reference category Male;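 for all read-outs here: outcome C2h is the drug concentration 2 h post-dose, with regression coefficient errors from a sandwich estimator after a Breusch–Pagan heteroscedasticity check and missing data excluded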
Description: Dependent variables (outcomes) for both drugs were defined as being the values of AUC0–6h and concentration 2 h after drug administration (C2h). […] The Breusch–Pagan test was used to detect a potential heteroscedasticity issue, and consistent standard errors of the regression coefficients were assessed with a sandwich estimator. […] In addition, association between dependent variables and predicted activity of CYP3A and P-gp from genotype were also adjusted for a pre-specified set of potential confounding factors (gender, CrCl, BMI, age, dose). Spearman’s correlation was used to assess the concordance between genotype and phenotype of CYP3A and P-gp. Missing data were excluded from the analysis.

CYP3A = system: CYP3A; set-up: method as in PMID 32157630; conditions: cited from earlier work
CYP2J2 and CYP1A2 = system: CYP2J2 and CYP1A2; set-up: method as in PMID 32157630; conditions: cited from earlier work
[5] = genotype model, Table S4, reference category 10 mg od
[6] = genotype model, Table S4, reference category IM
[7] = phenotype model, Table S3, reference category 10 mg od
[8] = genotype model, Table S4, reference category 2.5 mg bid
[9] = phenotype model, Table S3, reference category 2.5 mg bid

Row | SMILES | excreted by the kidney [1] | observed variability of AUC0–6h explained by the model [2] | C2h, β (CI95%): ALAT, per unit ([2]; genotype model, Table S4) | C2h, β (CI95%): CrCl, per unit ([2]; genotype model, Table S4) | C2h, β (CI95%): Intercept ([2]; genotype model, Table S4) | C2h, β (CI95%): Age 65–74 years ([2]; genotype model, Table S4) | C2h, β (CI95%): Age 75–84 years ([2]; genotype model, Table S4) | C2h, β (CI95%): Age >85 years ([2]; genotype model, Table S4) | C2h, β (CI95%): Predicted phenotype from genotype CYP3A, PM [2, 6] | C2h, β (CI95%): Gender, Female ([2]; genotype model, Table S4) | C2h, β (CI95%): Genotype ABCB1 1236C>T, Heterozygous for mutation ([2]; genotype model, Table S4) | C2h, β (CI95%): Genotype ABCB1 1236C>T, Homozygous for mutation ([2]; genotype model, Table S4) | C2h, β (CI95%): Genotype ABCB1 2677G>T, Heterozygous for mutation ([2]; genotype model, Table S4) | C2h, β (CI95%): Genotype ABCB1 2677G>T, Homozygous for mutation ([2]; genotype model, Table S4) | C2h, β (CI95%): Genotype ABCB1 3435C>T, Heterozygous for mutation ([2]; genotype model, Table S4) | C2h, β (CI95%): Genotype ABCB1 3435C>T, Homozygous for mutation ([2]; genotype model, Table S4) | inter-individual CV of blood concentrations ([3]; administered bid) | observed variability of AUC0–6h predicted by the model ([4]; phenotype model) | C2h, β (CI95%): ALAT, per unit ([4]; phenotype model, Table S3) | C2h, β (CI95%): CrCl, per unit ([4]; phenotype model, Table S3) | other results
1 | O=C(NC[C@H]1CN(c2ccc(N3CCOCC3=O)cc2)C(=O)O1)c1ccc(Cl)s1 [Rivaroxaban] | 66% | ~18% | 0.08 (−0.06 to 0.22) | −0.14 (−0.61 to 0.32) | −10.99 (−88.50 to 66.51) | 24.56 (8.41 to 40.71) | 25.66 (−1.56 to 52.88) | 19.86 (−9.35 to 49.08) | 24.72 (−8.3 to 57.73) | 2.56 (−12.47 to 17.59) | −16.43 (−46.63 to 13.77) | −1.63 (−39.30 to 36.03) | 23.36 (−8.85 to 55.56) | 16.54 (−19.70 to 52.77) | −8.53 (−32.11 to 15.04) | −12.17 (−32.48 to 8.14) | 41.5% | 27% | 0.05 (−0.14 to 0.23) | −0.017(−0.49 to 0.34) | contribution of CYP2J2 to total clearance (CYP2J2): 14%; C2h, β (CI95%): Weight, per kg ([2]; genotype model, Table S4): 0.46 (0.04 to 0.88); C2h, β (CI95%): Dose 15 mg bid [2, 5]: 60.99 (29.95 to 92.04); C2h, β (CI95%): Dose 15 mg od [2, 5]: 29.53 (−2.56 to 61.63); C2h, β (CI95%): Dose 20 mg od [2, 5]: 57.40 (22.52 to 92.28); C2h, β (CI95%): Predicted phenotype from genotype CYP3A, NM [2, 6]: 20.74 (1.20 to 40.28); inter-individual CV of blood concentrations ([3]; administered od): 51.8%; C2h, β (CI95%): Intercept ([4]; phenotype model, Table S3): −77.74 (−161.1 to 5.63); C2h, β (CI95%): MRmidazolam, per log10 ([4]; phenotype model, Table S3): −8.35 (−30.17 to 13.47); C2h, β (CI95%): Weight, per kg ([4]; phenotype model, Table S3): 0.23 (−0.18 to 0.63); C2h, β (CI95%): Dose 15 mg bid [4, 7]: 41.5 (0.24 to 82.75); C2h, β (CI95%): Dose 15 mg od [4, 7]: 18.95 (−21.77 to 59.66); C2h, β (CI95%): Dose 20 mg od [4, 7]: 39.98 (−4.47 to 84.44); C2h, β (CI95%): Age 65–74 years ([4]; phenotype model, Table S3): 15.15 (−0.06 to 30.37); C2h, β (CI95%): Age 75–84 years ([4]; phenotype model, Table S3): 10.55 (−12.65 to 33.75); C2h, β (CI95%): Age >85 years ([4]; phenotype model, Table S3): 7.97 (−15.72 to 31.67); C2h, β (CI95%): Gender, Female ([4]; phenotype model, Table S3): 1.91 (−13.03 to 16.84); share of metabolism CYP3A is responsible for (CYP3A): 18%
2 | COc1ccc(-n2nc(C(N)=O)c3c2C(=O)N(c2ccc(N4CCCCC4=O)cc2)CC3)cc1 [Apixaban] | 25–30% | approximately 40% | 0.07 (−0.17 to 0.32) | −0.48 (−0.75 to −0.21) | 80.68 (42.43 to 118.93) | 5.10 (−15.52 to 25.71) | 9.29 (−10.54 to 29.12) | 14.31 (−10.69 to 39.31) | −18.61 (−36.00 to −1.21) | 5.44 (−5.98 to 16.87) | −1.26 (−23.09 to 20.57) | −9.35 (−36.76 to 18.06) | 8.08 (−14.86 to 31.01) | 9.94 (−17.81 to 37.69) | −7.52 (−24.64 to 9.60) | −2.70 (−18.04 to 12.65) | 47.7% | 47% | 0.06 (−0.13 to 0.25) | −0.40 (−0.67 to −0.13) | contribution of CYP2J2 and CYP1A2 together to metabolism (CYP2J2 and CYP1A2): 6%; C2h, β (CI95%): Dose 5 mg bid [2, 8]: 51.17 (37.82 to 64.51); C2h, β (CI95%): Dose 10 mg bid [2, 8]: 113.17 (81.73 to 145.52); decrease in CrCl with an effect comparable to P-gp phenoconversion NM to PM ([4]; according to the AUC0–6h model): 37.6 mL/min/1.73 m^2; C2h, β (CI95%): Intercept ([4]; phenotype model, Table S3): −0.46 (−51.98 to 51.05); C2h, β (CI95%): MRmidazolam, per log10 ([4]; phenotype model, Table S3): 6.07 (−8.08 to 20.22); C2h, β (CI95%): Weight, per kg ([4]; phenotype model, Table S3): −0.02 (−0.37 to 0.33); C2h, β (CI95%): Dose 5 mg bid [4, 9]: 51.97 (41.16 to 62.78); C2h, β (CI95%): Dose 10 mg bid [4, 9]: 116.28 (80.44 to 152.12); C2h, β (CI95%): Age 65–74 years ([4]; phenotype model, Table S3): 8.61 (−10.00 to 27.23); C2h, β (CI95%): Age 75–84 years ([4]; phenotype model, Table S3): 13.69 (−5.59 to 32.97); C2h, β (CI95%): Age >85 years ([4]; phenotype model, Table S3): 17.73 (−3.37 to 38.82); C2h, β (CI95%): Gender, Female ([4]; phenotype model, Table S3): 4.07 (−5.94 to 14.08); share of metabolism CYP3A is responsible for (CYP3A): 15%

Reference: article PMC9028714 (Journal of Personalized Medicine, 2022)
